Experimental data from ChEMBL document CHEMBL3885861, “Open TG-GATES”.

Organism: Rattus norvegicus
Assay: Open TG-GATES - Regimen: Single
Assay type: toxicity, organism-based, Sprague-Dawley
Design: regimen Single, gender Male, age 6 weeks
Conditions: in vivo, po, route gavage; for TP / gamma-GTP / ALP / AST / BUN / CRE / Ca / Cl / DBIL / GLC / IP / K / LDH / Na / PL / RALB / TBIL / TG / TC: tissue Plasma; for APTT / Bas / Eos / Fbg / Ht / MCH / MCHC / MCV / Mono / Plat / RBC / Ret / WBC / PT: tissue Blood; for KIDNEY_L / KIDNEY_R / KIDNEY_TOTAL: tissue Kidney; for LIVER: tissue Liver
[1] = 200 mg/kg, 24 h, dose level Middle
[2] = 600 mg/kg, 3 h, dose level High
[3] = 600 mg/kg, 6 h, dose level High
[4] = 600 mg/kg, 9 h, dose level High
[5] = 600 mg/kg, 24 h, dose level High

For `CC(=O)Nc1nnc(S(N)(=O)=O)s1` [ACETAZOLAMIDE], the TP [1] was 5.7 g/dL, the gamma-GTP [1] was 1.4 IU/L and the TERMINAL_BW [2] was 215.3 g. It also gave an APTT [2] of 22.2 s, a Bas [2] of 0% and an Eos [2] of 1.2%. It also gave a Fbg [2] of 336.8 mg/dL, a Ht [2] of 42.8% and an MCH [2] of 21.1 pg. It also gave an MCHC [2] of 31.1%, an MCV [2] of 67.9 fL and a Mono [2] of 2%. The Plat [2] was 114.9 x10_4/uL, the RBC [2] was 630.4 x10_4/ul and the Ret [2] was 8.1%. The WBC [2] was 60.8 x10_2/uL, the KIDNEY_L [2] was 0.9 g and the KIDNEY_R [2] was 1 g. It also gave a KIDNEY_TOTAL [2] of 1.9 g, an LIVER [2] of 9.6 g and an ALP [2] of 1769.8 IU/L. The AST [2] was 76 IU/L, the BUN [2] was 12.2 mg/dL and the CRE [2] was 0.2 mg/dL. For the same molecule, the Ca [2] was 11.1 mg/dL, the Cl [2] was 112 meq/L and the DBIL [2] was 0 mg/dL. The GLC [2] was 188.6 mg/dL, the IP [2] was 10.5 mg/dL and the K [2] was 4 meq/L. For the same molecule, the LDH [2] was 209.8 IU/L, the Na [2] was 140.2 meq/L and the PL [2] was 140.4 mg/dL. It also gave an RALB [2] of 3.3 g/dL, a TBIL [2] of 0.008 mg/dL and a TG [2] of 24.8 mg/dL. The TP [2] was 5.9 g/dL, the gamma-GTP [2] was 1.2 IU/L and the TERMINAL_BW [3] was 204.7 g. For the same molecule, the APTT [3] was 23.6 s, the Bas [3] was 0% and the Eos [3] was 1.4%. For the same molecule, the Fbg [3] was 340.8 mg/dL, the Ht [3] was 42.8% and the MCH [3] was 21.2 pg. For the same molecule, the MCHC [3] was 31.1%, the MCV [3] was 68 fL and the Mono [3] was 2.4%. For the same molecule, the PT [3] was 16.8 s, the Plat [3] was 120.2 x10_4/uL and the RBC [3] was 628.2 x10_4/ul. The Ret [3] was 8.5%, the WBC [3] was 85.2 x10_2/uL and the KIDNEY_L [3] was 0.9 g. It also gave a KIDNEY_R [3] of 1 g, a KIDNEY_TOTAL [3] of 1.9 g and an LIVER [3] of 8.3 g. For the same molecule, the ALP [3] was 1569.2 IU/L, the AST [3] was 69 IU/L and the BUN [3] was 10.6 mg/dL. It also gave a CRE [3] of 0.2 mg/dL, a Ca [3] of 11.1 mg/dL and a Cl [3] of 113 meq/L. The DBIL [3] was 0 mg/dL, the GLC [3] was 185.2 mg/dL and the IP [3] was 10.1 mg/dL. For the same molecule, the K [3] was 3.8 meq/L, the LDH [3] was 205.4 IU/L and the Na [3] was 138.4 meq/L. The PL [3] was 149.8 mg/dL, the RALB [3] was 3.4 g/dL and the TBIL [3] was 0.016 mg/dL. The TC [3] was 90.4 mg/dL, the TG [3] was 23 mg/dL and the TP [3] was 6 g/dL. It also gave a gamma-GTP [3] of 1.2 IU/L, a TERMINAL_BW [4] of 201.6 g and an APTT [4] of 24 s. It also gave a Bas [4] of 0%, an Eos [4] of 0.8% and a Fbg [4] of 344.6 mg/dL. The Ht [4] was 43%, the MCHC [4] was 30.9% and the MCV [4] was 66.6 fL. For the same molecule, the Mono [4] was 2.2%, the PT [4] was 16 s and the Plat [4] was 123.6 x10_4/uL. For the same molecule, the RBC [4] was 645.4 x10_4/ul, the Ret [4] was 8.8% and the WBC [4] was 51.5 x10_2/uL. The KIDNEY_L [4] was 0.9 g, the KIDNEY_R [4] was 0.9 g and the KIDNEY_TOTAL [4] was 1.9 g. The LIVER [4] was 7.7 g, the ALP [4] was 1753.6 IU/L and the AST [4] was 59 IU/L. For the same molecule, the BUN [4] was 13.4 mg/dL, the CRE [4] was 0.2 mg/dL and the Ca [4] was 11 mg/dL. For the same molecule, the Cl [4] was 114.2 meq/L, the DBIL [4] was 0 mg/dL and the GLC [4] was 172.6 mg/dL. The IP [4] was 10 mg/dL, the K [4] was 3.8 meq/L and the LDH [4] was 176.4 IU/L. It also gave a Na [4] of 138.6 meq/L, a PL [4] of 127.8 mg/dL and an RALB [4] of 3.4 g/dL. The TBIL [4] was 0.02 mg/dL, the TC [4] was 85 mg/dL and the TG [4] was 11.4 mg/dL. For the same molecule, the TP [4] was 6.1 g/dL, the gamma-GTP [4] was 1.2 IU/L and the TERMINAL_BW [5] was 199.5 g. For the same molecule, the APTT [5] was 22.2 s, the Bas [5] was 0% and the Eos [5] was 1%. For the same molecule, the Fbg [5] was 359.2 mg/dL, the Ht [5] was 41.1% and the MCH [5] was 20.3 pg. It also gave an MCHC [5] of 32.8%, an MCV [5] of 61.9 fL and a Mono [5] of 2.2%. It also gave a PT [5] of 16.9 s, a Plat [5] of 112.5 x10_4/uL and an RBC [5] of 663.8 x10_4/ul. The Ret [5] was 8%, the WBC [5] was 74.5 x10_2/uL and the KIDNEY_L [5] was 0.9 g. It also gave a KIDNEY_R [5] of 0.9 g, a KIDNEY_TOTAL [5] of 1.9 g and an LIVER [5] of 7.9 g. The ALP [5] was 1549.4 IU/L, the AST [5] was 49.6 IU/L and the BUN [5] was 18.8 mg/dL. For the same molecule, the CRE [5] was 0.2 mg/dL, the Ca [5] was 10.7 mg/dL and the Cl [5] was 116.8 meq/L. The DBIL [5] was 0 mg/dL, the IP [5] was 8.2 mg/dL and the K [5] was 3.8 meq/L. For the same molecule, the LDH [5] was 205.2 IU/L, the Na [5] was 140.6 meq/L and the PL [5] was 137.4 mg/dL. For the same molecule, the RALB [5] was 3.5 g/dL, the TBIL [5] was 0.016 mg/dL and the TC [5] was 89.6 mg/dL. It also gave a TG [5] of 26.8 mg/dL, a TP [5] of 6 g/dL and a gamma-GTP [5] of 1.2 IU/L.
